Drawing on patent publication EP2873670A1, “Bis azainositol zirconium complexes for X-ray imaging” (Bayer Pharma Aktiengesellschaft, priority 2013, dated 2015), this text covers Stability for two substances.

The data set is described as follows: Stability of bis azainositol Zirconium complexes under heat sterilization (HPLC with ICP-MS detection, ICP-OES). In kind it is physicochemical. The conditions noted are these: absolute stability; aqueous, buffered solution at pH 7.4, 5 mmol/L of the compound, heated to 121 °C for 45 minutes in a steam autoclave. As for the experimental part: Stability of bis azainositol Zirconium complexes
The stability of bis azainositol Zirconium complexes was determined in aqueous, buffered solution at pH 7.4. The solution containing 5 mmol/L of the compound in a tightly sealed vessel was heated to 121 °C for 45 minutes in a steam autoclave. The Zirconium concentration of the solution was determined by ICP-OES before and after heat treatment. The integrity of the compound was determined by HPLC analysis before and after heat treatment. Absolute stability was calculated as the ratio of the peak area of the compound after and before the heat treatment multiplied with the ratio of the metal concentration of the solution after and before heat treatment.
• Column 1: Reversed phase C18. • Column 2: ZIC®-HILIC. • Solvent A1: 0,5 mM tetrabutylammonium phosphate pH 6 • Solvent A2: 0.1 % formic acid in water • Solvent B1: methanol • Solvent B2: acetonitrile
The use of columns, solvents, flow rate and gradients is detailed in the table below. Detector: element specific detection by ICP-MS, running at m/z 90, the most abundant isotope of Zirconium.

“Bis[µ3-3,3',3"-({[1R-(1α,2α,3α,4α,5α,6α)]-2,4,6-trihydroxylato-1κ^2O^2O^6, 2κ^2O^2O^4,3κ^2O^4O^6-cyclohexane-1,3,5-triyl}tris{methylimino-1κN^1,2κN^3,3κN^5})tripropanoato-1κO,2κO',3κO"]trizirconium(IV) [Example 3]” showed a Stability of 100%. For “Hydroxido-3κO-[µ3-3,3',3"-({[1R-(1α,2α,3α,4α,5α,6α)]-2,4,6-trihydroxylato-1κ^2O^2O^6, 2κO^2O^4,3κ^2O^4O^6-cyclohexane-1,3,5-triyl]tris{methylimino-1κN^1,2κN^3,3κN^5}) tri-propanoato-1κO,2κO',3κO"][µ3-3,3'-({[1R-(1α,2α,3α,4α,5α,6α)]-2,4,6-trihydroxylato-1κ^2O^2O^6,2κ^2O^2O^4,3κ^2O^4O^6-5-[methylamino-3κN^5]cyclohexane-1,3-diyl}bis{methyl-imino-1κN^1,2κN^3})dipropanonato-1κO,2κO']trizirconium(IV) [Example 4]”, the Stability is reported as 100%.
